From patent publication US20250049791A1, “Synthesis of MEK7 Inhibitors and methods of Use Thereof” (Northwestern University, priority 2023, published 2025)

Tests used:
[1] = biological target: T1, MAP2K7 recombinant protein (Homo sapiens, UniProt O14733); experiment: LC/MS-MS determination of residue selectivity; format: binding
T1 construct: purchased Carna Biosciences 07-147-10; host or cells: E. coli
T1 sequence (O14733 1-419): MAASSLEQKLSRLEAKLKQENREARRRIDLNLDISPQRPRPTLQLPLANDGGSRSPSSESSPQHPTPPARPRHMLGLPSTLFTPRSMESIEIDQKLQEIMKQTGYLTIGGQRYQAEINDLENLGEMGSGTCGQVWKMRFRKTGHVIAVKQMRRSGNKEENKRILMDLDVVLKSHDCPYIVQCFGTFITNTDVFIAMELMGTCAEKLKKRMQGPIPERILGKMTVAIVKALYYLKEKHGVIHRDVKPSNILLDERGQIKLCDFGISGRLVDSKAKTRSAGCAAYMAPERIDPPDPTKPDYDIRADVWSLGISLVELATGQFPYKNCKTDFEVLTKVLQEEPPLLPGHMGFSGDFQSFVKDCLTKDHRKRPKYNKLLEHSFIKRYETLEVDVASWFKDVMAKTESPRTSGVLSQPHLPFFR
Description: MAP2K7 recombinant protein was diluted, purified, and incubated as described above. After incubation, protein solution was denatured with 8 M urea for 10 minutes at 65° C., reduced with 12.5 mM DTT for 15 minutes at 65° C., and alkylated with 25 mM iodoacetamide in the absence of light for 30 minutes at 37° C. Protein solution was diluted with PBS to 2 M urea and divided into two digestion reactions: one with 2 μg trypsin and 10 μg chymotrypsin for 6 hours at 37° C., the other with 5 μg GluC for 6 hours at 37° C. Digested peptides were acidified with 5% formic acid and desalted using Sep-Pak C18 1 cc Vac Cartridge (Waters). Peptides were analyzed by liquid chromatography tandem mass-spectrometry using an Orbitrap Eclipse Tribrid Mass Spectrometer (Thermo Scientific) coupled to an Vanquish Neo UHPLC System (Thermo Scientific). Peptides were injected onto EASY-Spray HPLC Column (C18, 2 μm particle size, 75 μm inner diameter, 250 mm length) and separated at a flow rate of […] using the following gradient: 5% buffer B (80% acetonitrile with 0.1% formic acid) in buffer A (water with 0.1% formic acid) from 0-15 min, 5-45% buffer B from 15-155 min, 45-100% buffer B from 155-180 min. Raw data was searched in Proteome Discoverer 2.5 (Thermo Scientific).

FLT3 = biological target: T2, FLT3 (Homo sapiens, UniProt P36888); experiment: ScanEDGE competition binding, FLT3; conditions: ScanEDGE screen
T2 construct: purchased DiscoverX (Eurofins)
T2 sequence (P36888 27-993): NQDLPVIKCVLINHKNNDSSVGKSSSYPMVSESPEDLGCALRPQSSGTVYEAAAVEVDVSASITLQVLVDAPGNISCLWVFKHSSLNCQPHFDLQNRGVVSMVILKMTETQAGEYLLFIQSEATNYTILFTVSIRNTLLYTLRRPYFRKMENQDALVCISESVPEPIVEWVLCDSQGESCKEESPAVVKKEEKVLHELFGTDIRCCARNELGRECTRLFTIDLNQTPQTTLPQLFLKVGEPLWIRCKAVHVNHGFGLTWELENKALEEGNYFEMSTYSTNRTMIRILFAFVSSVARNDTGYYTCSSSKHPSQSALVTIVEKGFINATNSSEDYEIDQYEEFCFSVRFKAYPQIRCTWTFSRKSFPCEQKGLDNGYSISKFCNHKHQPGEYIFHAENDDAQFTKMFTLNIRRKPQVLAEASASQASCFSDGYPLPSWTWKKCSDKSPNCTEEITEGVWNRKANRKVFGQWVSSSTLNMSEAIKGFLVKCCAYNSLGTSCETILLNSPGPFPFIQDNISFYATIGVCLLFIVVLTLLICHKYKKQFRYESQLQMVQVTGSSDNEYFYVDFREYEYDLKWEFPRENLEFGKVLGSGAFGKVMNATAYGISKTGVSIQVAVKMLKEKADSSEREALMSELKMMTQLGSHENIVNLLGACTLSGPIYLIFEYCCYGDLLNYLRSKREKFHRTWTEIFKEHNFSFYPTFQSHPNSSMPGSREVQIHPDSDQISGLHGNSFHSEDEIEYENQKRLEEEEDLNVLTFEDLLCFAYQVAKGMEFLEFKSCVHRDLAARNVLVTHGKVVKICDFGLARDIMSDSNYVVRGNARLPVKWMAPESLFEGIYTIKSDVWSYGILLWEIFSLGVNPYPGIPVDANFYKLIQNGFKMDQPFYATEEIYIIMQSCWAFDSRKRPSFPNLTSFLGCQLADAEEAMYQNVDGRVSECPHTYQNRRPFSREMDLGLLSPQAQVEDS
Text: The ScanEDGE assay, completed by DiscoverX (Eurofins) is a proprietary active site-directed competition binding assay. Compounds that bind the kinase active site prevent kinase binding to the immobilized ligand, reducing the amount of kinase captured on the solid support. Hits are identified by measuring the amount of kinase captured in experimental vs, control samples by a qPCR method that detects an associated DNA label. According to data provided by Eurofins, a typical hit at 5-10% of control signal in a 1 μM assay as shown above is generally associated with a KD in the range of 100-1,000 nM. Readings with greater than 35% of control signal correspond to exceeding large dissociation constants.

Compound: O=C(CCl)Nc1cccc(Oc2cc(NCc3ccccc3)ncn2)c1 [Compound 25, N-(3-((6-(benzylamino)pyrimidin-4-yl)oxy)phenyl)-2-chloroacetamide]
- cysteine residue covalently engaged, GluC digest [1]: Cys341
- cysteine residue covalently engaged, trypsin/chymotrypsin digest [1]: Cys218
- engagement of FLT3 (FLT3): does not engage
